Series [1] is described as follows: Partition coefficient (LogD), octanol/PBS shake flask method. The series is classed as physicochemical. To be noted: octanol / phosphate buffer pH 7.4, shake flask, radioactivity counted by gamma-counter; read-out: LogD (observed). The text has this:
We determined the partition coefficients (LogD) using the octanol/PBS shake flask method.

Series [2] can be described thus: Aqueous solubility / formulation for in vivo studies. The series is classed as physicochemical. To be noted: high concentration of DMSO (~ 50%) needed to solubilise the tracer.

Structures are written as SMILES.

Among the data in publication PMC8139947, “Novel late-stage radiosynthesis of 5-[18F]-trifluoromethyl-1,2,4-oxadiazole (TFMO) containing molecules for PET imaging” (Scientific Reports, 2021) are logD and aqueous solubility values, retold here.

As for `CC(C)(CNC(=O)c1cccc(-c2noc(C(F)(F)[18F])n2)c1)c1coc(-c2ccccc2)n1` [[^18F]TMP195, N-(2-methyl-2-(2-phenyloxazol-4-yl)propyl)-3-(5-([18F]trifluoromethyl)-1,2,4-oxadiazol-3-yl)benzamide], the logD – broadly, lipophilicity at a set pH, counting ionised and neutral species – in series [1] was over 6. Also, the aqueous solubility result in series [2] was “poor”.
